In ChEMBL document CHEMBL1201862, “PubChem BioAssay data set” (2004):
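Test compounds were applied to cells in 96-well plates for 48 hours at 5 doses. GI50 = concentration required for 50% inhibition of growth.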 Active and inactive are the calls of the source. Rule as the data show it: active = GI50 up to about 1.1 µM and inactive = higher.

Legend:
Experiment in all cases: growth of human tumour cells (NCI), 48 h
[1] = tested on: OVCAR-8
[2] = tested on: NCI-H522
[3] = tested on: HCT-116
[4] = tested on: HL-60
[5] = tested on: RPMI-8226
[6] = tested on: SNB-19
[7] = tested on: TK-10
[8] = tested on: SK-MEL-5
[9] = tested on: UACC-257
[10] = tested on: NCI-H460
[11] = tested on: MOLT-4
[12] = tested on: OVCAR-5
[13] = tested on: HCC 2998
[14] = tested on: SF-268
[15] = tested on: HOP-92
[16] = tested on: NCI-H226
[17] = tested on: BT-549
[18] = tested on: SF-539
[19] = tested on: UO-31
[20] = tested on: SF-295
[21] = tested on: Hs-578T
[22] = tested on: HCT-15
[23] = tested on: UACC-62
[24] = tested on: CCRF-CEM
[25] = tested on: MDA-MB-231
[26] = tested on: A498
[27] = tested on: M14
[28] = tested on: HT-29
[29] = tested on: SR
[30] = tested on: OVCAR-4
[31] = tested on: MDA-N
[32] = tested on: SW-620
[33] = tested on: ACHN
[34] = tested on: SNB-75
[35] = tested on: KM12
[36] = tested on: U-251
[37] = tested on: MDA-MB-435
[38] = tested on: SK-MEL-2
[39] = tested on: EKVX
[40] = tested on: OVCAR-3
[41] = tested on: K562
[42] = tested on: A549
[43] = tested on: RXF 393
[44] = tested on: IGROV-1
[45] = tested on: HOP-62
[46] = tested on: MCF7
[47] = tested on: CAKI-1
[48] = tested on: NCI/ADR-RES
[49] = tested on: Malme-3M
[50] = tested on: SK-OV-3
[51] = tested on: 786-0
[52] = tested on: NCI-H23
[53] = tested on: COLO 205
[54] = tested on: SN12C
[55] = tested on: DU-145
[56] = tested on: PC-3
[57] = tested on: T47D
[58] = tested on: LOX IMVI
[59] = tested on: SK-MEL-28

Measured: GI50

C[C@]12C[C@@H](c3ccccc3)Nc3ccccc3N1C(c1ccccc1)=NO2
35.4 µM: [22]
inactive: [1] 36.1 µM | [2] 35.9 µM | [3] 37.9 µM | [4] 46.2 µM | [5] 20.3 µM | [6] 89.7 µM | [7] 34.4 µM | [8] 16.1 µM | [9] 33.8 µM | [10] 52.1 µM | [11] 18 µM | [12] 33.2 µM | [13] 81.3 µM | [14] 88.5 µM | [15] 18.5 µM | [16] 32.4 µM | [17] 40.9 µM | [18] 33.4 µM | [19] 29.6 µM | [20] 16 µM | [21] 77.8 µM | [23] 33.4 µM | [24] 35.9 µM | [25] 45.5 µM | [26] 43.3 µM | [27] 32.5 µM | [28] 30.6 µM | [29] 1.8 µM | [30] 24.9 µM | [31] 26.2 µM | [32] 61.1 µM | [33] 33.9 µM | [34] 16.6 µM | [35] 33.6 µM | [36] 44.2 µM | [37] 24.5 µM | [38] 25.6 µM | [39] 24.3 µM | [40] 46.8 µM | [41] 35.4 µM | [42] 54.3 µM | [43] 51.6 µM | [44] 38.1 µM | [45] 77.1 µM | [46] 31 µM | [47] 37.1 µM | [48] 45.1 µM | [49] 42.9 µM | [50] > 100 µM | [51] 56.6 µM | [52] 30.7 µM | [53] 19 µM | [54] 49.3 µM | [55] 92.3 µM | [56] 43 µM

COc1ccc2c(c1)C(=O)CC(C(N)=O)C2 (configuration not stated)
inactive: [57] > 100 µM | [1] > 100 µM | [2] > 100 µM | [58] > 100 µM | [3] > 100 µM | [4] > 100 µM | [5] > 100 µM | [6] > 100 µM | [7] > 100 µM | [8] > 100 µM | [9] > 100 µM | [10] > 100 µM | [11] > 100 µM | [12] > 100 µM | [13] > 100 µM | [14] > 100 µM | [15] > 100 µM | [59] > 100 µM | [16] > 100 µM | [17] > 100 µM | [19] > 100 µM | [20] > 100 µM | [21] > 100 µM | [23] > 100 µM | [24] > 100 µM | [25] > 100 µM | [27] > 100 µM | [28] > 100 µM | [29] > 100 µM | [30] > 100 µM | [32] > 100 µM | [33] > 100 µM | [34] 53.1 µM | [35] > 100 µM | [36] > 100 µM | [37] > 100 µM | [38] > 100 µM | [39] > 100 µM | [40] > 100 µM | [41] > 100 µM | [42] > 100 µM | [43] > 100 µM | [44] > 100 µM | [45] > 100 µM | [46] > 100 µM | [47] > 100 µM | [48] > 100 µM | [49] > 100 µM | [50] > 100 µM | [51] > 100 µM | [52] > 100 µM | [53] > 100 µM | [54] > 100 µM | [55] > 100 µM | [56] > 100 µM
> 100 µM: [22]
